Test results reported in patent US6780971B2, “Compositions for inhibiting the aggregation pathway of α-synuclein” (Panacea Pharmaceuticals, Inc., priority 2000, dated 2004).
“Also recorded” adds a separate entry of the source.

Assays:
α-synuclein = molecular target: T1, α-synuclein (Homo sapiens, UniProt P37840); assay: Tyrosine fluorescence assay of metal binding to α-synuclein; details: magnesium co-incubated with iron
T1 construct: His-6 (cleaved yes); made in house; host or cells: bacteria (IPTG-induced; Pro-Ex His 6 vector)
Description: Because iron binds to other proteins that form aggregates and iron is known to accumulate in Parkinson's disease, iron might bind directly to α-synuclein. To confirm this hypothesis, the interaction of iron with α-synuclein was tested using tyrosine fluorescence as an indicator of iron binding. […] Fluorescence of tyrosine has been used to monitor binding of metals to β-amyloid [Garzon-Rodriguez W. et al., Bioorg. Med. Chem. Let., 9:2243-2248 (1999), which is hereby incorporated by reference]. A similar approach was taken to analyze binding of iron to α-synuclein. Tyrosine has a fluorescence emission spectrum that has a peak emission of 310 nm when excited at 280 nm, respectively (FIG. 2A). It was observed that binding of iron reduced the fluorescence of the tyrosines in α-synuclein. […] The Hill coefficient was 1.0 (R^2=1.0, P<0.0001), indicating one binding site for iron with no cooperativity (FIGS. 2A & B). α-Synuclein was also tested for binding to other metals, including CuCl2, ZnCl2 and MgCl2. Because the C-terminus of α-synuclein has a region with 7 glutamates and 4 aspartates, which together could chelate iron, we created a deletion construct lacking the last 27 amino acids on α-synuclein and analyzed binding of this construct.
To monitor the binding profiles of Fe(II) and Mg(II) to α-synuclein in vitro we used changes of tyrosine fluorescence. Tyrosine fluorescence is used as an indicator of changes in protein conformation or binding of metals. Excitation of tyrosine at 280 nm elicits fluorescence that peaks at 310 nm for monomeric tyrosine, and at 350-400 nm for tyrosinate or dimeric tyrosine. The fluorescence spectrum of α-synuclein yielded fluorescence peaks at 310 and 400 nm. The peak at 400 nm cannot be explained by the presence of dimeric tyrosine, due to dimerization of α-synuclein, because dimerization of α-synuclein decreases the fluorescence at 400 nm, and tends to eliminate the peak at 400 nm.

A53T α-synuclein [1] = molecular target: T2, A53T α-synuclein (Homo sapiens, UniProt P37840, A53T); assay: Tyrosine fluorescence assay of metal binding to A53T α-synuclein
T2 construct: His-6 (cleaved yes); made in house; host or cells: bacteria (IPTG-induced; Pro-Ex His 6 vector)
Text: We also examined how the A53T mutation in human α-synuclein affected binding of iron and magnesium. […] Previous studies have shown that A53T mutation changes the conformation of α-synuclein by increasing its helical content (Polymeropoulos et al., Science, 276:2045-7(1997)). These conformational changes might also reduce binding of magnesium to α-synuclein.

[2] = molecular target: T3, wildtype recombinant α-synuclein (Homo sapiens, UniProt P37840); assay: Aggregation of recombinant wildtype α-synuclein (immunoblot, video densitometry, thioflavine-S); format: biochemical
T3 construct: His-6 (cleaved yes); made in house; host or cells: bacteria (IPTG-induced; Pro-Ex His 6 vector)
Description: Knowing that magnesium and iron induce opposing changes in α-synuclein tyrosine fluorescence, it is believed that binding of magnesium might convert α-synuclein to a conformation that resists aggregation perhaps by preventing β-pleated sheet formation. To test this, wildtype recombinant α-synuclein was incubated with 0-3 mM FeCl2 and 0 or 100 μM MgCl2 for 24 hrs at 37° C., then immunoblotting was performed for α-synuclein and quantified aggregation by video densitometry.

A53T α-synuclein [3] = molecular target: T2, A53T α-synuclein; assay: Iron-induced aggregation of recombinant A53T α-synuclein (immunoblot, video densitometry); format: biochemical; details: 0-3 mM FeCl2, 100 μM MgCl2, 24 hrs
Description: We incubated recombinant A53T α-synuclein with 0-3 mM FeCl2 and 0 or 100 μM MgCl2 for 24 hrs, then immunoblotted the α-synuclein and quantified aggregation by video densitometry.

primary cortical neurons [4] = assay: α-Synuclein aggregation in primary cortical neurons (immunoblot, video densitometry); format: cell-based, rat
Description: Immunoblotting: Cells were harvested with SDS lysis solution (2% SDS, 10 mM Tris, pH 7.4, 2 mM β-glycerol phosphate, 1 μM AEBSF). The amount of protein was determined using the BCA assay (Pierce), […] per lane was run on 14% SDS polyacrylamide gels and transferred to nitrocellulose (200 mAmp, 12 hrs). The nitrocellulose was then incubated 1 hr in 5% milk/PBS, washed, incubated overnight in 1° antibody, washed, then incubated 3 hrs in peroxidase coupled 2° antibody and developed with chemiluminescent reagent (NEN).
(§1) To test this, the inventors examined the ability of magnesium to inhibit α-synuclein aggregation in primary cortical neurons grown in cell culture. Primary cortical neurons were treated with 1 mM FeCl2 plus 0-1.5 mM MgCl2 for 3 days, the α-synuclein was immunublotted and the amount of aggregate determined by video densitometry. […] Doses as low as 0.5 mM of magnesium produced statistically significant reduction in formation of α-synuclein positive aggregates.

primary cortical neurons [5] = assay: Ubiquitin-positive α-synuclein aggregates in primary cortical neurons (immunoprecipitation, anti-ubiquitin immunoblot); format: cell-based, rat; details: 0.3 mM iron and 50 μM dopamine, 3 days
Description: The inventors also examined the amount of aggregates present using an antibody to ubiquitin. As set forth previously, the accumulation of high molecular weight ubiquitin adducts correlates with the formation of α-synuclein aggregates. Primary cortical neurons were treated as described above and the aggregates were immunoprecipitated with anti-α-synuclein antibody and immunoblotted with anti-ubiquitin antibody. An increase in ubiquitination of α-synuclein upon treatment with 0.3 mM iron and 50 μM dopamine for 3 days was observed. However, treating the cells with magnesium produced a statistically significant decrease in ubiquitin immunoreactivity with doses as low as 0.5 mM (n=3, P<0.0001). Thus, magnesium inhibits formation of ubiquitin positive α-synuclein aggregates in primary neurons.

[6] = tested on: BE-M17 neuroblastoma cells over-expressing wild type α-synuclein; assay: α-Synuclein aggregation and inclusions in BE-M17 cells over-expressing wild type α-synuclein; format: cell-based, human; details: 1 mM FeCl2 plus 50 μM dopamine plus 1 mM MgCl2, 3 days
Description: Immunohistochemistry: For light microscopy, cells are fixed with 4% paraformaldehyde, washed, permeabilized by incubation for 30 min with 0.2% Triton-X 100, blocked with 5% dry milk/1 % goat serum/PBS, washed and then incubated overnight in 1° antibody (1:500). Development is with an ABC kit and 3′, 3′-diaminobenzidine as per manufacturer's directions (Vector, Burlingame, Calif.).
as §1
Next, whether magnesium also prevents formation of α-synuclein-positive inclusions in BE-M17 neurons stably over-expressing wildtype α-synuclein was investigated. The neurons were treated with 1 mM FeCl2 plus 50 μM dopamine plus 0 or 1 mM MgCl2 for 3 days, and then examined by immunocytochemistry using anti-α-synuclein and anti-ubiquitin antibodies.

[7] = tested on: BE-M17 cells expressing the human A53T α-synuclein cDNA; assay: Aggregate formation in BE-M17 cells expressing A53T α-synuclein; format: cell-based
[8] = tested on: primary cultures of cortical neurons; assay: Neuronal process length and inclusions in primary cultures of cortical neurons; format: cell-based, rat; details: 0.3 mM FeCl2 plus 50 μM dopamine plus 1-2 mM magnesium, 3 days
Description: How magnesium affected neurons from the central nervous system was also examined. Primary cultures of cortical neurons were treated with 0.3 mM FeCl2 plus 50 μM dopamine plus 0-2 mM MgCl2 for 3 days (a relatively low dose of iron was used to enable quantitation of neuronal processes). To quantify the amount of neuroprotection provided by magnesium, the percent of processes longer than 100 μm as a characteristic of cell viability was determined. […] Inclusions also formed in these neurons.

[9] = tested on: BE-M17 neuroblastoma cells; assay: Neuroprotection against FeCl2 plus dopamine, MTT assay; details: 0.8 mM MgCl2, 2 days
Description: MTT and LDH toxicity assay: Cells were plated in 96 well dishes at 5000 cells/well in 100 μl growth medium. For the MTT assay, viability following 48 hrs of pharmacological treatment was analyzed by adding 0.5 mg/ml MTT (MTT, 3-[4,5-dimethylthiazol-2-yl]-2,5-diphenyltetrazolium bromide) and incubating at 37° C. for 3 hrs. Lysis buffer (100 μl of 20% SDS in 50% N, N-dimethylformamide) was then added and the plates are read at 540 nm after 24 hrs. For the lactate dehydrogenase (LDH) assay, viability following 24 hrs of pharmacological treatment was analyzed using MTS reagent and the Cytox 96 kit (Promega) according to manufacturer's directions.

In the case of [Cl-].[Cl-].[Mg+2] [magnesium, MgCl2], the “effect of co-incubation on iron-induced quenching of tyrosine fluorescence” value (α-synuclein) is reported as “did not prevent iron-induced quenching”, the “effect of A53T mutation on binding to α-synuclein” value (A53T α-synuclein [1]) is reported as “abolish the interaction” and the “iron-induced formation of high molecular weight aggregates of α-synuclein” value ([2]; 0-3 mM FeCl2, 100 μM (0.1 mM) MgCl2, 24 hrs, 37° C.) is reported as “striking reduction in formation of high molecular weight aggregates; also recorded: inhibits iron-induced aggregation”. The “spontaneous aggregation of α-synuclein” value ([2]; separate experiments, no iron) was “inhibited spontaneous aggregation”, the “magnesium required to inhibit α-synuclein aggregation in vitro” value ([2]; stated as MgSO4 clinical range) was 0.5 to 2 mM and the “iron-induced aggregation of A53T α-synuclein” value (A53T α-synuclein [3]) was “unable to inhibit iron-induced aggregation”. For the same compound, the “lowest dose producing statistically significant reduction of α-synuclein positive aggregates” value (primary cortical neurons [4]; 1 mM FeCl2, 3 days) was 0.5 mM, the “formation of high molecular weight α-synuclein aggregates” value (primary cortical neurons [4]; 1 mM FeCl2, magnesium 0.2 to 1.5 mM, 3 days) was “dose-dependent reduction” and the “lowest dose producing statistically significant decrease in ubiquitin immunoreactivity” value (primary cortical neurons [5]) was 0.5 mM. The “α-synuclein-positive inclusions (immunocytochemistry)” value [6] was “little accumulation of α-synuclein-positive inclusions”, the aggregate formation [7] was “unable to inhibit aggregate formation” and the “formation of α-synuclein-positive inclusions” value [8] was “did not exhibit any formation of α-synuclein-positive inclusions”. For the same compound, the “loss of neuronal processes over 100 μm” value [8] was 20%, the “increase in cell survival versus Fe2+/dopamine alone” value ([9]; control (vector) cell line) was 1.3 fold and the “increase in cell survival versus Fe2+/dopamine alone” value ([9]; wildtype α-synuclein cell line) was 2.4 fold.
